We go through six compounds from patent US8178540B2 (priority 2006, dated 2012).

Data set [1] concerns tobacco budworm (Heliothis virescens). The settings on record: 2500 ppm; eggs sprayed, 6 days.
The test system of a further data set is Sphaerotheca fuliginea. The data set can be described thus: Use Example 8: protective action on cucumber leaves. The settings on record: 250 ppm (printed for RC 3 only); cucumber seedlings sprayed 1 day before inoculation; after seven days; untreated plants 90% infected. Type of data set: in vivo. The source says: After inoculation, the trial plants were transferred to a green house.

The test system of another data set is Alternaria solani. The data set can be described thus: Use Example 2: early blight of tomato, greenhouse, spores in 2% biomalt. In kind it is in vivo. The settings on record: 250 ppm; tomato plants sprayed 1 day before inoculation; assessed after 5 days; untreated plants 90% infected. As to the method:
The next day, the treated plants were inoculated with a spore suspension of Alternaria solani which contained 0.17×10^6 spores/ml in a 2% aqueous biomalt solution. The test plants were then placed in a water vapor-saturated chamber at temperatures of from 20 to 22° C. After 5 days the disease on the untreated infected control plants had developed to such an extent that the infection of all plants could be determined visually in %.

The next data set relates to Phytophthora infestans. Type of data set: in vivo. The settings on record: 250 ppm; tomato plants, sprayed 1 day before inoculation; after six days; untreated plants 90% infected.

For the compound `O=S(=O)(NCc1ccncn1)c1ccc(-c2ccc(Cl)cc2Cl)cc1` [Example 54], in data set [1], the mortality entry was “at least 75%”.
Turning to `COc1nccc(CNS(=O)(=O)c2ccc(-c3ccc(Cl)cc3)cc2)n1` [Example 88], the “infection (% diseased leaf area)” value with Sphaerotheca fuliginea is reported as “no infection”.
In the case of `O=S(=O)(NCc1ccncn1)c1ccc(Oc2ccc(Cl)cc2)cc1` [Example 199], the infection entry in the data set on Alternaria solani is given as “less than or equal to 5%”.
Still for that read-out and setting: the value for `O=S(=O)(NCc1ccncc1)c1ccc(Oc2ccc(Cl)cc2)cc1` [RC 1] was 40%.
On to `O=S(=O)(NCc1ccncc1)c1ccc(-c2ccc(Cl)cc2)cc1` [RC 2], for which the “infection (% diseased leaf area)” value in the data set with Phytophthora infestans came out at 90%.
`COc1cc(CNS(=O)(=O)c2ccc(-c3ccc(Cl)cc3)cc2)ccn1` [RC 3]: the “infection (% diseased leaf area)” value in the data set with Sphaerotheca fuliginea was determined as 90%.
